# Measurements taken from US10577365B2, “Derivatives of quinoline as inhibitors of DYRK1A and/or DYRK1B kinases” (Felicitex Therapeutics, Inc., priority 2016, dated 2020).
# Structures can show the parent of a compound that is named as a salt.
# Key:
# DYRK1A = biological target: T1, DYRK1A (Homo sapiens, UniProt Q13627); assay: DYRK1A in vitro kinase assay (ADP-Glo); assay type: biochemical; conditions: ATP 70 μM (Km), substrate 3 μM, enzyme 2 nM or 0.7 nM, 30 min, rt
# T1 construct: purchased Carna Bioscence (Carna Biosciences) 04-130
# DYRK1B = biological target: T2, DYRK1B (Homo sapiens, UniProt Q9Y463); assay: DYRK1B in vitro kinase assay (ADP-Glo); assay type: biochemical; conditions: ADP-Glo assay, ATP 15 μM (Km), substrate 7 μM, enzyme 1 nM or 0.3 nM, 1 h, rt; read-out: DYRK1B IC50
# T2 construct: purchased Carna Bioscence (Carna Biosciences) 04-131
# T2 sequence (Q9Y463 whole entry): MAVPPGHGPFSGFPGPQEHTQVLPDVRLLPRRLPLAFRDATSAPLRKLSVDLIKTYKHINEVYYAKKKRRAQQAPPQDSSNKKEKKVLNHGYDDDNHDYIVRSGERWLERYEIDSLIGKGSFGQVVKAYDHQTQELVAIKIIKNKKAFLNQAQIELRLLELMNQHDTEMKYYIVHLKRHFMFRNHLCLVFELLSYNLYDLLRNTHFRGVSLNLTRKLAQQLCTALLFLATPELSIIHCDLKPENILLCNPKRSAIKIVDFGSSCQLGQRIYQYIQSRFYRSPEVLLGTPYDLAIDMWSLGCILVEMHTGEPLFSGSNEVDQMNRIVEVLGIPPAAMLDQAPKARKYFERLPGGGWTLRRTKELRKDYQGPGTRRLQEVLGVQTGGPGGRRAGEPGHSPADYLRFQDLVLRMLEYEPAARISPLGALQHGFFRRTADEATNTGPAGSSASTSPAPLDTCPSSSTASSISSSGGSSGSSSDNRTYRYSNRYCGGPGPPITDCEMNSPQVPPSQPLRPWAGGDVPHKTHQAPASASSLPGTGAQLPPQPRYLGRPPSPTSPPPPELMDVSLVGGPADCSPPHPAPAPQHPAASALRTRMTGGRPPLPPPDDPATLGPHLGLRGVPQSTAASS
SMILES,IC50 (DYRK1A) [µM],IC50 (DYRK1B) [µM]
"CNC(=O)c1cnc2[nH]cc(-c3ccc4ncc(NCC5CCOCC5)c(N5CCOCC5)c4c3)c2c1 [Example 58, N-Methyl-3-[4-(morpholin-4-yl)-3-[(oxan-4-ylmethyl)amino]quinolin-6-yl]-1H-pyrrolo[2,3-b]pyridine-5-carboxamide]",0.01 to 0.1,< 0.01
"N[C@H]1CC[C@H](Nc2c([N+](=O)[O-])cnc3ccc(-c4c[nH]c5ncc(C(=O)NCc6cccnc6)cc45)cc23)CC1 [Example 59, 3-{4-[(4-Aminocyclohexyl)amino]-3-nitroquinolin-6-yl}-N-(pyridin-3-ylmethyl)-1H-pyrrolo[2,3-b]pyridine-5-carboxamide hydrochloride]",0.01 to 0.1,0.01 to 0.1
"N[C@H]1CC[C@H](Nc2c(NCC3CCOCC3)cnc3ccc(-c4c[nH]c5ncc(C(=O)NCc6cccnc6)cc45)cc23)CC1 [Example 60, 3-{4-[(4-Aminocyclohexyl)amino]-3-[(oxan-4-ylmethyl)amino]quinolin-6-yl}-N-(pyridin-3-ylmethyl)-1H-pyrrolo[2,3-b]pyridine-5-carboxamide hydrochloride]",0.01 to 0.1,< 0.01
"CN1CCC(N(C)c2c([N+](=O)[O-])cnc3ccc(-c4c[nH]c5ncccc45)cc23)CC1 [Example 65, N-Methyl-N-(1-methylpiperidin-4-yl)-3-nitro-6-{1H-pyrrolo[2,3-b]pyridin-3-yl}quinolin-4-amine]",0.01 to 0.1,0.01 to 0.1

# Other lines, results leading:
IC50 (DYRK1A) [µM],IC50 (DYRK1B) [µM],SMILES
< 0.01,< 0.01,"Nc1cnc2ccc(-c3c[nH]c4ncc(C(=O)NCc5cccnc5)cc34)cc2c1 [Example 61, 3-(3-Aminoquinolin-6-yl)-N-(pyridin-3-ylmethyl)-1H-pyrrolo[2,3-b]pyridine-5-carboxamide]"
< 0.01,< 0.01,"CC(=O)Nc1cnc2ccc(-c3c[nH]c4ncc(C(=O)NCc5cccnc5)cc34)cc2c1 [Example 62, 3-(3-Acetamidoquinolin-6-yl)-N-(pyridin-3-ylmethyl)-1H-pyrrolo[2,3-b]pyridine-5-carboxamide]"
< 0.01,< 0.01,"O=C(NCc1cccnc1)c1cnc2[nH]cc(-c3ccc4ncc(NCC5CCOCC5)cc4c3)c2c1 [Example 63, 3-{3-[(Oxan-4-ylmethyl)amino]quinolin-6-yl}-N-(pyridin-3-ylmethyl)-1H-pyrrolo[2,3-b]pyridine-5-carboxamide]"
< 0.01,< 0.01,"CC(=O)N1CCC(Nc2c(N)cnc3ccc(-c4c[nH]c5ncccc45)cc23)CC1 [Example 66, 1-{4-[(3-Amino-6-{1H-pyrrolo[2,3-b]pyridin-3-yl}quinolin-4-yl)amino]piperidin-1-yl}ethan-1-one]"
